Measurements as given in patent US20240141294A1, “CGMP COMPLIANT PRODUCTION AND EXPANSION OF PLASMACYTOID DENDRITIC CELLS FROM HEMATOPOIETIC STEM AND PROGENITOR CELLS” (AARHUS UNIVERSITET, priority 2021, published 2024).

Key:
Assay type in all cases: cell-based, human
HSPC-pDCs [1] = assay: Phenotypic analysis of pDC surface markers by flow cytometry; conditions: pDCs isolated from AA-supplemented culture at day 16
Procedure: Flow cytometry was used to immunophenotype pDCs. Briefly, cells were spun down and resuspended in 100 μL PBS. Cells were stained with Ghost Dye Red 780 Viability Dye (13-0865, Tonbo) for 30 min before being washed with FACS buffer (PBS with 2% FCS and 1 mM EDTA). Cells were subsequently resuspended in 50 μL FACS buffer and stained with the following antibodies: FITC anti-human Lineage Cocktail (CD3 (UCHT1), CD14 (HCD14), CD16 (3G8), CD19 (HIB19), CD20 (2H7) and CD56 (HCD56), 348801, BioLegend), APC anti-human CD11c (3.9, 20-0116-T100, TonboBio), PE anti-human CD123 (6H6, 12-1239-42, eBioscience), PE-Cy7 anti-human CD303 (201a, 25-9818-42, eBioscience). Cells were stained for 30 min before being washed three times in FACS buffer. To validate the expression CD34+ on HSPCs, cells were stained with PE-Cy7 anti-human CD34 (581, 343516, BioLegend) for 30 min, washed three times in FACS buffer before being resuspended in FACS buffer. PI was added to the cells as a viability dye in a concentration of 1:100 (13-6990 Tonbo Bioscience). Fluorescence intensities were measured using the Quanteon flow cytometer equipped with 4 lasers (405 nm, 488 nm, 561 nm, and 637 nm) and 29 photomultipliers (PMT) detectors or the NovoCyte flow cytometer with two lasers (488 nm and 561 nm) and 12 PMT detectors (ACEA Biosciences, Inc.). Data analysis was done using FlowJo (Version 10, Tree Star, Ashland, OR, USA). […]

CD34+ HSPCs = assay: HSPC expansion and HSPC-pDC differentiation culture (cell numbers, viability, HSPC-pDC yield)
Procedure: Depending on optimization regiments, freshly or cryo-preserved HSPCs from various sources were differentiated to HSPC-pDCs using different types of medium. For STD and LD/RPMI conditions, HSPCs were cultured in RPMI 1640 (Lonza) supplemented with 10% heat-inactivated fetal calf serum (FCS) (HyClone®), 600 μg/mL L-Glutamine (Sigma), 200 U/mL penicillin and 100 μg/mL streptomycin (Gibco®, Life Technologies). For STD conditions, HSPCs were cultured at a fixed volume during pDC differentiation, versus a fixed density of 0.5-5×10^6 cells/mL for the LD condition. For serum-free (SFEM II) or CGMP serum-free medium (DC medium) conditions, HSPCs were cultured in SFEM II or DC medium at low density (0.5-5×10^6 cells/mL). […] All cytokines are from Peprotech. In addition, the small molecule inhibitor StemRegenin 1 (SR1, […] Technologies) was added at a concentration of 1 μM. For serum-free medium conditions, a concentration of 20 μg/mL streptomycin and 20 U/mL penicillin (Gibco, Life Technologies) was added. Moreover, for the CGMP DC medium condition, 50 μg/mL of ascorbic acid was added. Cells were cultured at 37° C., 95% humidity, and 5% CO2 for up to 21 days depending on optimizations. For the fixed density conditions, medium was replenished every 2-4 day depending on the growth of the HSPCs. Total cell numbers during expansion and differentiation of HSPCs was determined using a TC20 Automated Cell Counter (Bio-Rad). At the end of culture, HSPC-pDCs were enriched using a negative selection kit, according to manufacturer's instructions (EasySep Human Plasmacytoid Dendritic Cell Enrichment kit, […] Technologies).
De-identified umbilical cord blood (UCB) samples were obtained following scheduled caesarean section deliveries of healthy infants at Department of Gynecology and Obstetrics, Skejby University Hospital. Consent was obtained from the mothers. CD34^+ cord blood HSPCs (CB-HSPC) were subsequently purified using EasySep Human Cord Blood CD34 Positive Selection kit II, according to manufacturer's instructions ([…] Technologies). Briefly, a pre-enrichment of CD34+ cells was performed were bi-specific antibodies targeting unwanted cells were used during standard Ficoll-Hypaque (GE Healthcare) density-gradient centrifugation. CD34+ cells were subsequently isolated using anti-CD34 immunomagnetic beads (positive selection). CD34^+ CB HSPCs were either freshly used or cryo-preserved until use.

HSPC-pDCs [2] = assay: TLR7 or TLR9 agonist activation, functional type I IFN (HEK-blue IFN-α/β reporter)
Procedure: Priming of HSPC-pDCs was performed as previously described. Isolated HSPC-pDCs were primed in the same medium as the differentiation was done in (either RPMI 1640, SFEM II or DC medium). […] For HSPC-pDCs differentiated in DC medium, medium was also supplemented with 50 μg/mL ascorbic acid. Cells were primed for three days before being phenotypically or functionally characterized.
To analyze the capacity of HSPC-pDCs to produce type I IFN, 4×10^4 pDCs were seeded out in 96-well plates in the same medium as the differentiation was done in (either RPMI 1640, SFEM II or DC medium). […] Cells were subsequently stimulated with agonists directed against TLR7 (R837, tlrl-imq, InvivoGen) or TLR9 (CpG-A 2216, tlrl-2216-1, InvivoGen) at a final concentration of 2.5 μg/mL. Twenty hours post stimulation supernatants were harvested and cryopreserved at −20° C. until analysis.
To quantify functional type I IFN, the reporter cell line HEK-blue IFN-α/β was utilized, according to the manufacturer's instructions (InvivoGen). […] Activity of SEAP was assessed using QUANTI-Blue (InvivoGen). Color change was measured at an optical density (OD) of 620 nm using the SpectraMax iD3 platereader (Molecular Devices). […]

**Q.** For `O=C1O[C@H]([C@@H](O)CO)C(O)=C1O` [ascorbic acid], which “surface expression levels of CD303” value (HSPC-pDCs [1]) is on record?
**A.** The value was “lower expression levels”.

**Q.** And the “viability of HSPC-pDCs isolated at day 21” value (CD34+ HSPCs; AA addition versus 72.8%±3.2% for DC medium alone)?
**A.** The value was 92.0%.

**Q.** And the “percentage of HSPC-pDCs of the total population of cells” value (CD34+ HSPCs; AA supplementation of DC medium)?
**A.** Its value is “without affecting”.

**Q.** And the “yield of HSPC-pDCs isolated at day 21” value (CD34+ HSPCs; DC medium+AA versus 0.5×10^9+0.3×10^9 for DC medium alone)?
**A.** The value was 1.0×10^9 HSPC-pDCs per 0.1×10^6 CD34+ H.

**Q.** And the “expansion during HSPC-pDC differentiation” value (CD34+ HSPCs; DC medium+AA versus 13,456 fold (±6,953) for DC medium alone, 1×10^5 HSPCs seeded)?
**A.** The value was 33,554 fold.

**Q.** And the “viability of expanding HSPCs during culture” value (CD34+ HSPCs; DC medium+AA vs DC medium alone, in particular Day 12+)?
**A.** Its value is “significantly improved”.

**Q.** And the “type I IFN response to synthetic TLR7 and TLR9 agonists” value (HSPC-pDCs [2]; HSPC-pDCs from AA culture, isolated day 16 and 21, in contrast to DC medium alone)?
**A.** Its value is “robust type I IFN response”.

**Q.** And the “cHSPC-pDC TLR7 and TLR9-mediated type I IFN production” value (HSPC-pDCs [2]; cHSPC-pDCs from peripheral blood cHSPCs, SFEM II, DC medium or DC medium+AA)?
**A.** Its value is “required”.
